The values that follow come from patent US9132109B2, “Use of non-steroidal anti-inflammatory drugs by inhalation in the treatment of acute and chronic bronchitis” (MEDESTEA RESEARCH & PRODUCTION S.P.A., priority 2005, dated 2015).

SMILES strings stand for the structures. Like-named read-outs stand apart in the source and are kept apart here.

The test system of one assay is asthma patients. Particulars: by inhalation, Sestini P. et al. 1999; cited from earlier work.
For assay [1], the system named is bronchitic patients. Particulars: cited from earlier work.
Assay [2] relates to bronchitic patients. The assay can be described thus: Pulmonary function and pro-inflammatory parameters in bronchitic patients after nebulised drug. It counts as in vivo, human. The following applies: aspirin by nebuliser.
Protocol: The study involved 4 patients with a diagnosis of COPD according to the ATS/ERS guidelines (B R Celli et al. Eur. Respir. J. 2004; 23: 932-46), who were smokers or former smokers (≧20 packets a year). The patients were instructed in the use of a peak expiratory flow (PEF) measuring device using a peak flowmeter, and asked to record the PEF measurements in a daily diary. The measurements were performed 3 times a day: immediately after getting up in the morning, before lunch, and at night before going to bed. […] The patients were suitably instructed as to how to perform the PEF measurements, and asked to record the various measurements and any symptoms, whether correlated with the disease or not, in a daily diary. Before beginning treatment with 900 mg lysine acetylsalicylate (equivalent to 500 mg of acetylsalicylic acid) twice a day, morning and evening, administered after measurement of the corresponding PEF, the patients discontinued all pharmacological treatment except for short-acting bronchodilators in accordance with the ATS/ERS guidelines (B R Celli et al. Eur. Respir. J. 2004; 932-46) as first-line of treatment. This basic treatment was continued for 15 days, during which the PEF values were recorded; their mean value was considered as the baseline value. […]
Assay [3] deals with bronchitic patients. Particulars: indomethacin inhaler; Tamaoki et al.; cited from earlier work.
Assay [4] relates to patients with a diagnosis of COPD. The assay can be described thus: Peak expiratory flow (PEF) in COPD patients treated by inhalation. The format is in vivo, human. The following applies: 900 mg lysine acetylsalicylate (equivalent to 500 mg acetylsalicylic acid) twice a day by inhalation, 30 days, vs 15-day baseline; two patients; similar at all 3 daily measurements. Here is the method: The study involved 4 patients with a diagnosis of COPD according to the ATS/ERS guidelines (B R Celli et al. Eur. Respir. J. 2004; 23: 932-46), who were smokers or former smokers (≧20 packets a year). The patients were instructed in the use of a peak expiratory flow (PEF) measuring device using a peak flowmeter, and asked to record the PEF measurements in a daily diary. The measurements were performed 3 times a day: immediately after getting up in the morning, before lunch, and at night before going to bed. At least 3 daily PEF measurements are considered a good method for the measurement of pulmonary function (C A. Holcroft et al., Chest, 2003; 124: 501-10). PEF measurement has also been used, together with other spirometric tests, to evaluate potential COPD drugs (N A. Hanania et al., Chest, 2003; 124: 834-43). The patients were suitably instructed as to how to perform the PEF measurements, and asked to record the various measurements and any symptoms, whether correlated with the disease or not, in a daily diary. […] This basic treatment was continued for 15 days, during which the PEF values were recorded; their mean value was considered as the baseline value. […]

In the case of `CC(=O)Oc1ccccc1C(=O)O` [aspirin, acetylsalicylic acid], in the assay on asthma patients, the immediate allergen-induced bronchoconstriction entry was “inhibited”. Besides, in the assay with bronchitic patients [1] (aspirin by inhalation, Inoue H et al. 1991), the sputum volume entry is on record as “reduces the sputum volume”. In the assay with bronchitic patients [2], the pulmonary function entry is on record as “definite improvement” and the pulmonary pro-inflammatory parameters entry was “reduction”.

In the case of `COc1ccc2c(c1)c(CC(=O)O)c(C)n2C(=O)c1ccc(Cl)cc1` [indomethacin], the “variation in respiratory function (FEV1)” value in the assay with bronchitic patients [3] is on record as “did not observe any significant variation”. In addition, the immediate allergen-induced bronchoconstriction entry with asthma patients is “ineffective”. Also, the sputum volume result in the assay on bronchitic patients [1] (indomethacin inhaler, Tamaoki J. et al. 1992) was “reduction in sputum volume”.

In the case of `CC(=O)Oc1ccccc1C(=O)O` [lysine acetylsalicylate], in assay [4], the “mean increase in PEF” value was in the range of 8 to 10 L/min.
